How the values were obtained:
[1] = Half life in ICR mouse at 60 mg/kg, IG measured upto 24 hrs by LC-MS/MS analysis; type: ADME, organism-based; conditions: in vivo, po
[2] = system: LoVo; test: Antitumor activity against human LoVo cells xenografted in female BALB/c nude mouse assessed as tumor growth inhibition at 60 mg/kg, IG administered once daily for 27 days; type: functional; conditions: po, 648 h, time 27 day, read-out: TGI
[3] = Metabolic stability in mouse liver microsome assessed as parent compound remaining measured at 60 mins by LCMS/MS analysis; type: ADME; conditions: liver microsomes, read-out: Stability
[4] = Half life in ICR mouse at 1 mg/kg, iv measured upto 24 hrs by LC-MS/MS analysis; type: ADME, organism-based; conditions: in vivo
[5] = AUC (0 to 24 hrs) in ICR mouse at 1 mg/kg, iv measured upto 24 hrs by LC-MS/MS analysis; type: ADME, organism-based; conditions: in vivo
[6] = Volume of distribution in ICR mouse at 1 mg/kg, iv measured upto 24 hrs by LC-MS/MS analysis; type: ADME, organism-based; conditions: in vivo
[7] = Bioavailability in ICR mouse at 60 mg/kg, IG measured upto 24 hrs by LC-MS/MS analysis; type: ADME, organism-based; conditions: in vivo, po
[8] = Clearance in ICR mouse at 1 mg/kg, iv measured upto 24 hrs by LC-MS/MS analysis; type: ADME, organism-based; conditions: in vivo
[9] = AUC (0 to 24 hrs) in ICR mouse at 60 mg/kg, IG measured upto 24 hrs by LC-MS/MS analysis; type: ADME, organism-based; conditions: in vivo, po
[10] = biological target: T1, Wee1-like protein kinase (Homo sapiens, UniProt P30291); test: Inhibition of Wee1 in human U2OS cells assessed as reduction in CDK1 phosphorylation measured for 1 hr by Western blot analysis; type: cell-based
[11] = system: LoVo; test: Antiproliferative activity against human LoVo cells assessed as inhibition of cell growth incubated for 72 hrs by CCK-8 method; type: functional, cell-based
[12] = biological target: T1, Wee1-like protein kinase; test: Inhibition of human Wee1 (215 to 647 residues) using polyornithine/tyrosine (4:1) as substrate incubated for 5 mins in presence of ATP by micro beta plate reader analysis
[13] = system: A-427; test: Antiproliferative activity against human A-427 cells assessed as inhibition of cell growth incubated for 72 hrs by CCK-8 assay; type: functional, cell-based; conditions: A-427, 72 h
[14] = Metabolic stability in human liver microsome assessed as parent compound remaining measured at 60 mins by LCMS/MS analysis; type: ADME; conditions: liver microsomes, read-out: Stability
[15] = Acute toxicity in female C57 mouse assessed as body weight loss at 2000 mg/kg, IG measured for 7 days; type: organism-based; conditions: in vivo, po, 168 h, time 7 day
[16] = Toxicity in female BALB/c nude mouse xenografted with human LoVo cells assessed as body weight loss at 60 mg/kg, IG administered once daily for 27 days; type: organism-based; conditions: in vivo, po, 648 h, time 27 day

T1 sequence (P30291 whole entry): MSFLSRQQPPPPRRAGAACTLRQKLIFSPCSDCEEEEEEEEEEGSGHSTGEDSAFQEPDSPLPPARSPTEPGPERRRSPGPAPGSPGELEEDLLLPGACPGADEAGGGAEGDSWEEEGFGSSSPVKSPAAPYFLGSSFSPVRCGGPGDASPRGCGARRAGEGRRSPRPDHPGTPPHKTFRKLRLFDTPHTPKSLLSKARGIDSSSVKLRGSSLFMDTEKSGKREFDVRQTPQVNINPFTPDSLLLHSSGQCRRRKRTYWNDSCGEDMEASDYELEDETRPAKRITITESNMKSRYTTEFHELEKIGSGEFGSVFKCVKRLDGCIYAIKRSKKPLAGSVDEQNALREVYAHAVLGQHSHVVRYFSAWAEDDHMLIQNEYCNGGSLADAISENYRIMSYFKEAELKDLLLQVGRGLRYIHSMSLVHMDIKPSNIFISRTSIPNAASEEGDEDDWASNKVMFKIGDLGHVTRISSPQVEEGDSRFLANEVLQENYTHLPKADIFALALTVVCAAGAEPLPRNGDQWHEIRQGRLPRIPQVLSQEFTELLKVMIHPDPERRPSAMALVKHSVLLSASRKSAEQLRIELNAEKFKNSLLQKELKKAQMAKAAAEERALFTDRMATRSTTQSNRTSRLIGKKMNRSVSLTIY

| half-life [1] [h] | remaining at 1 h [3] [%] | half-life [4] [h] | AUC(0-t) at 24 h [5] [ng·h/mL] | Vd [6] [L/kg] | bioavailability [7] [%] | clearance [8] [mL/min/kg] | AUC(0-t) at 24 h [9] [ng·h/mL] | IC50 [10] [nM] | IC50 [11] [nM] | IC50 [12] [nM] | remaining at 1 h [14] [%] | Compound | inhibition in vivo at 60 mg/kg [2] [%] | IC50 [13] [nM] | Activity [15] | Activity [16] |
| --- | --- | --- | --- | --- | --- | --- | --- | --- | --- | --- | --- | --- | --- | --- | --- | --- |
| 3.9 | 59.4 | 1.65 | 1160 | 1.98 | 83.1 | 14.2 | 58100 | 367 | 555 | 2.2 | 71.2 | C=CCn1c(=O)c2cnc(Nc3ccc(N4CCN(C)CC4)cc3)nc2n1-c1cccc(-c2ncc(C)cn2)n1 | 72 | 476 | – | – |
| 2.97 | 82.3 | 1.38 | 124 | 13.4 | 91.3 | 128 | 6810 | 166 | 243 | 26 | 64.2 | C=CCn1c(=O)c2cnc(Nc3ccc(N4[C@@H]5CC[C@H]4CN(C)C5)cc3)nc2n1-c1cccc(-c2ncccn2)n1 | 53 | 115 | – | – |
| 1.74 | 63.9 | 1.19 | 403 | 4.24 | 61.1 | 41.2 | 14800 | 465 | 557 | 2.2 | 79.8 | C=CCn1c(=O)c2cnc(Nc3ccc(N4CCN(C)CC4)cc3)nc2n1-c1cccc(-c2ncccn2)n1 | – | 399 | – | – |

Continued, compound first:

| Compound | half-life [1] [h] | remaining at 1 h [3] [%] | half-life [4] [h] | AUC(0-t) at 24 h [5] [ng·h/mL] | Vd [6] [L/kg] | bioavailability [7] [%] | clearance [8] [mL/min/kg] | AUC(0-t) at 24 h [9] [ng·h/mL] | IC50 [10] [nM] | IC50 [11] [nM] | IC50 [12] [nM] | remaining at 1 h [14] [%] | inhibition in vivo at 60 mg/kg [2] [%] | IC50 [13] [nM] | Activity [15] | Activity [16] |
| --- | --- | --- | --- | --- | --- | --- | --- | --- | --- | --- | --- | --- | --- | --- | --- | --- |
| C=CCn1c(=O)c2cnc(Nc3ccc(N4CCC(N5CCN(C)CC5)CC4)cc3)nc2n1-c1cccc(-c2cnccn2)n1 | – | 78.5 | 2.55 | 699 | 5.6 | 48.5 | 23.8 | 20300 | 401 | 166 | 2 | 76.3 | 58 | 192 | – | – |
| C=CCn1c(=O)c2cnc(Nc3ccc(N4CCN(C)CC4)cc3)nc2n1-c1cccc(C(C)(C)O)n1 [ADAVOSERTIB] | 1.67 | 9.67 | 0.59 | 47.1 | 16.1 | 82.1 | 350 | 2320 | – | 328 | – | 32.7 | 70 | 311 | Toxic | – |
| C=CCn1c(=O)c2cnc(Nc3ccc(N4CCN(C)CC4)cc3)nc2n1-c1ccc2c(n1)[C@@](O)(CC)CC2 [AZENOSERTIB] | – | – | – | – | – | – | – | – | 567 | 317 | – | – | 80 | – | – | – |
| C=CCn1c(=O)c2cnc(Nc3ccc(N4CCN(CC)CC4)cc3)nc2n1-c1cccc(-c2cnccn2)n1 | – | 18 | 0.8 | 151 | 7.4 | 46.5 | 108 | 4200 | 341 | 92 | 1.6 | 65.2 | 69 | 88 | – | Toxic |

— ChEMBL document CHEMBL5512688 (J Med Chem, 2024)
